Several values for one entry are separate records, joined by “and”; a condition that tells them apart may be missing. Equal entries are not always repeated.
Legend:
[1] = tested on: metastatic colorectal cancer; conditions: cited from earlier work
[2] = tested on: PC-3 human prostate carcinoma xenografts; assay: PC-3 xenograft combination therapy (Example 3, first study); conditions: for Tumor Growth Delay: T-C, evaluation size 750 mg; for % T/C Day 22: VGX-100 40 mg/kg IP, bevacizumab 10 mg/kg IP, docetaxel 10 mg/kg IV, median tumor mass vs control; for % TFS (tumor free survivors): at termination, Day 160; for Complete regression / Partial regression / Tumor free survivor: yes/no; for Total CR / Total PR / Total TFS: number of animals of 10;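 on all read-outs here: subcutaneous PC-3 tumors in male athymic NCr nude mice aged 6-7 weeks, combination agents dosed within 30 min of each other, animals euthanized once tumors exceeded 2 g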
Description: Docetaxel was administered intravenously at 10 mg/kg weekly for three injections.
HIgG1 Isotype control-humanised antibody (6.4-12.36 mg/ml) and VGX-100 (5.53 and 5.75 mg/ml) were provided as frozen colorless stock solutions in Dulbecco's phosphate buffered saline (DPBS) and stored from light at −80° C. The stock solutions were thawed and stored at 4° C. when treatment began. The dosing solutions (40 mg/kg in 0.2 ml/20 g body weight) were prepared by diluting the stock solution with DPBS. The resulting formulations were clear with pH values ranging from 7.02-7.21. The dosing vials were kept on wet ice during dosing, gently pipetted and not aspirated through a needle except during administration. Dosing solutions were prepared weekly in DPBS and stored protected from light at 4° C. while not in use.
Docetaxel (lot no. D9A095) was manufactured by Sanofi-Aventis and obtained from McKesson as a pale yellow solution in 50% EtOH/50% Tween80. It was stored protected from light at 4° C. Docetaxel was diluted as directed on the package insert with the provided diluent (sterile water) to produce a clear and colorless 10 mg/ml stock solution. On each treatment day, a fresh 10 mg/ml stock was prepared and further diluted with water to achieve the appropriate concentration. The resulting solution was clear and colorless with a pH of 7.16.
All test articles were administered within two hours of preparation. For groups receiving combination therapy, the drugs were administered in the order presented in Table 1 and within 30 minutes of one another.
Male NCR(NCRNU-M) athymic mice were obtained from Taconic. They were 6-7 weeks old on Day 1 of the experiment. The mice were fed irradiated Rodent Diet 5053 (LabDiet™) and water ad libitum. The mice were housed in static cages with Bed-O'Cobs™ bedding inside Biobubble® Clean Rooms that provide H.E.P.A filtered air into the bubble environment at 100 complete air changes per hour. All treatments, body weight determinations, and tumor measurements were carried out in the bubble environment. The environment was controlled to a temperature range of 21.1±1.1° C. (70±2° F.) and a humidity range of 30-70%.
Test mice were implanted subcutaneously on Day 0. […] Mice with tumors in excess of 2 g or with ulcerated tumors were euthanized, as were those found in obvious distress or in a moribund condition.
PC-3 cells were obtained from ATCC and expanded using Ham's F-12 media supplemented with 10% fetal bovine serum and 1% penicillin-streptomycin-glutamine in 5% CO2 atmosphere at 37° C. When expansion was complete, the cells were collected using Trypsin (Cell Gro®), the trypsin neutralized, and the cells pooled for implantation. The PC-3 (Passage 10) cell suspension was counted using trypan blue exclusion with a hemacytometer. The cell suspension was reduced to a pellet using an Eppendorf 5810R centrifuge at 1500 rpm (300×g) for 5 minutes at 4° C. A 2.5×10^7 cells/ml suspension was prepared in 50% serum free media and 50% Matrigel®. Pre-injection viability was 97.7%. Test animals were implanted subcutaneously on Day 0 with 5×10^6 cells/animal (0.2 ml) using a 27-gauge needle and syringe. The cell suspension was maintained on wet ice to minimize the loss of viability and inverted frequently to maintain a uniform cell suspension during the inoculation procedure.
Treatments began on Day 8, when the mean estimated tumor mass for all groups in the experiment was 129 mg (range of group means, 123-134 mg). All animals weighed≧19.2 g at the initiation of therapy. Mean group body weights at first treatment were matched (range of group means, 21.5-22.8 g). All animals were dosed according to individual body weight on the day of treatment (0.2 ml/20 g).

[3] = tested on: KP4 human pancreatic tumors; assay: KP4 pancreatic xenograft (Example 8); conditions: VGX-100 40 mg/kg and/or Avastin 10 mg/kg; for % T/C: after 30 days
Description: VGX-100 was administered at 20 or 40 mg/kg for single therapy and at 40/mg/kg for combination therapy.
To initiate the study, 5×10^6 of KP4 cells suspended in 100 μl of a mixture of medium/Matrigel (1:1) were subcutaneously implanted to the nude mice in the right flank region. Cancer cells were implanted into 90 mice. Animals were monitored for tumor growth daily after cell implantation. When tumor volumes reached 80-100 mm^3, mice were randomized into 5 groups of 10 mice each using only mice having tumor volumes closest to the mean value. Mice with tumor volumes too big or too small were excluded from the study. Tumor volumes were measured using the formula V=L×W×H×π/6, where L and W represented the longer and shorter diameters of the tumor and H represented the height of the tumor. The treatment with drugs was initiated on the day after randomization. […] All treatments were administered intraperitoneally twice weekly for 30 days.
Throughout the entire study, tumor volumes were measured twice weekly and body weights once weekly. […] Unscheduled sacrifices were performed if tumor volumes reached>2,000 mm^3, animals lost>25% of their original body weights, tumor ulceration appeared, or mice became moribund. At the end of the experiment, tumors were removed, embedded in Optimal Cutting Temperature (OCT), and stored at −80° C. for IHC analysis. Gross examination was conducted on liver, lung, spleen, kidneys, testes, and prostate. If no abnormal observation was detected on these organs, the tissues were discarded.
Tumor size was measured 2-3 times weekly with calipers. Size of tumors relative to controls is calculated after 30 days of treatment.

[4] = tested on: U87MG human glioblastoma tumors; assay: U87MG glioblastoma xenograft, combination (Example 7); type: in vivo, nude mice; conditions: VGX-100 40 mg/kg, bevacizumab 10 mg/kg, administered alone
Description: This experiment was conducted broadly in accordance with Example 3, except that U87MG glioblastoma cells were substituted for PC-3 prostate cancer cells. Cells from a human glioblastoma tumor line (U87MG) were implanted subcutaneously into mice and grown until the tumors reached an average size of approximately 150 mg. […] There were 10 animals per treatment group.

[5] = Mayo Clinic or Roswell Park regimen, newly diagnosed
[6] = tumor doubling time, individual animals
[7] = subjects progressed following 5-FU therapy

Compound: 5-FU/leucovorin
- Median survival [1, 5]: 12-14 months
- Median time to disease progression [1, 5]: 4-5 months

Compound: CC(=O)O[C@@]12CO[C@@H]1C[C@H](O)[C@@]1(C)C(=O)[C@H](O)C3=C(C)[C@@H](OC(=O)[C@H](O)[C@@H](NC(=O)OC(C)(C)C)c4ccccc4)C[C@@](O)([C@@H](OC(=O)c4ccccc4)[C@H]21)C3(C)C [Docetaxel, docetaxel]
- Time to evaluation size ([2]; 750 mg, individual animals): 81.0 days (2×) and >160 days (2×) and 62.3 days and 89.1 days and 72.1 days and 69.0 days and 62.5 days and 66.5 days
- Tumor Growth Delay ([2]; same doses): 56.5 days
- % T/C Day 22 [2]: 8%
- % T/C: tumor burden in treatment group compared to control ([2]; at day 160): 82.4%
- % TFS (tumor free survivors) ([2]; same doses): Twenty percent and 20%
- Td ([2]; group mean): 8.8 days
- Time to fold growth EP ([2]; group mean): 86.0 days
- Td ([2]; group median): 8.8 days
- Time to evaluation size ([2]; group median): 76.5 days
- Time to fold growth EP ([2]; group median): 69.6 days
- Time to fold growth EP ([2]; individual animals): 78.1 days and >160 days (2×) and 57.4 days and 81.6 days and 65.4 days and 58.5 days and 60.0 days and 73.3 days and 65.9 days
- Complete regression ([2]; individual animals): yes
- Partial regression ([2]; individual animals): no
- Tumor free survivor ([2]; individual animals): no (8×) and yes (2×)
- Total CR [2]: 10
- Total PR [2]: 0
- Total TFS [2]: 2
- % CR (complete regression) ([2]; same doses): 100%
- % PR (partial regression) ([2]; same doses): 0%
- Anticancer activity of regimen ([2]; same doses): highly active
- Apparent Net Tumor Cell Kill (logs) ([2]; same doses): 1.13 logs
- Average Survival ([2]; study to day 160): 108.6 days
- Td [2, 6]: 5.1 days and 8.5 days and 9.4 days and 9.1 days and 13.2 days and 6.5 days and 13.4 days and 5.0 days

Compound: CCc1c2c(nc3ccc(OC(=O)N4CCC(N5CCCCC5)CC4)cc13)-c1cc3c(c(=O)n1C2)COC(=O)[C@]3(O)CC [irinotecan]
- Prolongation of survival vs best supportive care [1, 7]: 2.8 month
- Prolongation of survival vs infusional 5-FU [1, 7]: 2.2 month

Compound: Bevacizumab: recombinant humanized VEGF-A monoclonal antibody
- Mean Tumor Vol. at D30 (mm3) [3]: 596.7 mm3
- % T/C ([3]; listed as Avastin): 30.4%
- % T/C ([3]; listed as bevacizumab): 30.4%
- Time to evaluation size ([2]; 750 mg, individual animals): 36.3 days and 24.4 days and 25.8 days and 33.0 days and 30.5 days and 25.2 days and 25.4 days and 44.3 days and 18.0 days and 22.7 days
- Tumor Growth Delay ([2]; same doses): 5.6 days
- % T/C Day 22 [2]: 70%
- % TFS (tumor free survivors) ([2]; same doses): 0%
- Td ([2]; group mean): 12.2 days
- Time to evaluation size ([2]; group mean): 28.6 days
- Td ([2]; group median): 9.6 days
- Time to evaluation size ([2]; group median): 25.6 days
- Complete regression ([2]; individual animals): no
- Partial regression ([2]; individual animals): no
- Tumor free survivor ([2]; individual animals): no
- Total CR [2]: 0
- Total PR [2]: 0
- Total TFS [2]: 0
- % CR (complete regression) ([2]; same doses): 0%
- % PR (partial regression) ([2]; same doses): 0%
- Apparent Net Tumor Cell Kill (logs) ([2]; same doses): −4.91 logs
- Tumor regressions ([2]; same doses): No tumor regressions were observed
- Td [2, 6]: 16.9 days and 7.4 days and 7.5 days and 13.7 days and 16.8 days and 10.6 days and 8.6 days and 27.8 days and 4.8 days and 8.4 days
- Effect on tumor growth [4]: only a minor effect
